The values below come from ChEMBL document CHEMBL1155831, “The structural basis for peptidomimetic inhibition of eukaryotic ribonucleotide reductase: a conformationally flexible pharmacophore” (J Med Chem, 2008).

This test in a line: Inhibition of Saccharomyces cerevisiae ribonucleotide reductase.

By IC50 is commonly meant the concentration that inhibits the measured activity by half. Lower therefore signals greater potency in that assay.

On to H-NFDDDF-OH, for which the IC50 turned out to be 30 µM.

For the substance H-FTFNEDF-OH, half-maximal inhibition (IC50) required 44 µM.
